Patent US20130005762A1, “COMBINATION OF DROLOXIFENE AND CLOPIDOGREL” (TCP Innovations Limited, priority 2009, published 2013)
“Also recorded” adds a separate entry of the source. Counter-ions that a name gives are not always drawn.

Key:
[1] = Effect of co-administered triphenylethylenes on clopidogrel metabolism in vivo (CLP*-acetamide by LC-MS); design: species or system Sprague-Dawley rats; conditions: oral gavage; for effect on clopidogrel metabolism (in words): 0.1 to 10 mg/kg with 10 mg/kg clopidogrel
Experimental: Adult male Sprague-Dawley rats are dosed with various triphenylethylenes at different doses from 0.1 mg/kg to 10 mg/kg (spanning the likely doses such compounds would be used in man), or with vehicle only, and simultaneously dosed with 10 mg/kg clopidogrel, both by oral gavage. Blood samples are drawn through an in-dwelling jugular catheter at 0.5, 1, 2, 4, 8 and 24 hrs post-dose, and serum is prepared by conventional methods well known in the art.
The level of CLP*, the active metabolite of clopidogrel is then determined in each blood sample by LC-MS by collecting the blood samples in tubes containing the thiol alkylating agent iodeoacetamide. Iodoacetamide reacts with CLP* to generate a stable product which can be detected by LC-MS using standard methodology well known in the art. An authentic sample of the acetamide adduct of CLP* is used to quantify the level of CLP*-acetamide in the sample. […] The concentration of CLP*-acetamide adduct can therefore be assumed to be proportional to the concentration of CLP*. The pharmacokinetics of CLP*-acetamide are then compared under the different conditions, using standard pharmacokinetics models implemented with WinNonLin.

[2] = tested on: rat aortic smooth muscle cells; test: TGF-beta Production Stimulator functional assay: suppression of smooth muscle cell proliferation reversible by neutralising anti-TGF-beta1 antibody; type: cell-based, Wistar rat; conditions: compared side-by-side with Tamoxifen
Excerpt: In order compare Droloxifene with other triphenylethylenes, we have exploited a functional assay for TGF-beta1 activity. Alternative approaches are less suitable for various reasons: it is not possible to directly measure TGF-beta protein production by cultured cells in response to triphenylethylenes because the TGF-beta that is produced remains associated with the cells or the extracellular matrix and is therefore not available for assay (for example, by ELISA) in the conditioned medium from the cultured cells. […] The specificity of such an assay is achieved by comparing the rate of proliferation of the smooth muscle cells in the presence or absence of a validated, highly specific neutralising antibody against TGF-beta (or TGF-beta1, as required).
The cells were prepared by enzyme dispersion of isolated rat aortae exactly as described previously (Grainger et al (1993) Biochem. J. 294(1):109-12 and the references therein). The cells were cultured (37° C.; 5% CO2) in DMEM+10% foetal calf serum (FCS), and subcultured every 4 days at 1:2 dilution, using 0.02% trypsin/EDTA (Gibco). Experiments were performed between the sixth and twentieth subculture.
For the experiments, the cells were subcultured into 12-well cluster plates, and allowed to grow for 24 hrs. […] The cells were then incubated for 72 hrs. All treatment conditions were established in triplicate. One triplicate of cells was counted (see below) at Oh. All other wells were counted at 72 hrs.
The number of cells in each well was determined as follows: the well was washed three times with serum-free DMEM, aspirated and then incubated with 100 μl of trypsin/EDTA solution (Gibco) for 2 minutes at 37° C. Complete release of the cell monolayer was confirmed microscopically. The cell density in portion of this suspension was determined by counting using an Improved Neubauer hameocytometer, ensuring the suspension was uniform by gentle pipetting, prior to sampling. The cell density was converted to the absolute number of cells present in the well by multiplying the number of cells per μl by the total volume of suspension (100 μl). For each condition, the mean number of cells at the end of the experiment was calculated by meaning the number of cells in each well of triplicate.
The extent of proliferation of the cell culture under each condition was determined by subtracting the mean number of cells at time Oh from the mean number of cells under that condition at time 72 h. The amount of TGF-beta1 activity under each condition was determined by subtracting the inhibition of growth achieved in the presence of neutralising anti-TGF-beta1 antibody (AB-101-NA; R&D Systems) from the inhibition of growth achieved in the absence of antibody.

[3] = Meta-analysis of cardiovascular outcomes of women treated with Tamoxifen (Braithwaite et al.); type: in vivo; conditions: translated from the relative risk
Excerpt: This translates to a 33% reduction in risk, which, if replicated among higher risk groups such as men, would result in at least 10,000 fewer deaths due to myocardial infarction in the UK alone each year, and five times that number in the US.

[4] = analog 0.1 mg/kg with 10 mg/kg clopidogrel
[5] = analog 1 mg/kg with 10 mg/kg clopidogrel
[6] = analog 10 mg/kg with 10 mg/kg clopidogrel

Row | effect on clopidogrel metabolism (in words) [1] | SMILES | effect on clopidogrel metabolism (in words) ([1]; listed as droloxifene) | % inhibition of CLP*-acetamide Cmax compared to vehicle control [1, 4] [%] | % inhibition of CLP*-acetamide Cmax compared to vehicle control [1, 5] [%] | % inhibition of CLP*-acetamide Cmax compared to vehicle control [1, 6] [%] | TGF-beta Production Stimulator activity (in words) [2] | TGF-beta Production Stimulator activity (in words) ([2]; listed as raloxifene) | reduction in risk of death from myocardial infarction [3] [%]
1 | no effect on clopidogrel metabolism | CC/C(=C(/c1ccc(OCCN(C)C)cc1)c1cccc(O)c1)c1ccccc1 [Droloxifene, (E)-1-(4′-(2-dimethylaminoethoxy)phenyl)-1-(3-hydroxyphenyl)-2-phenylbut-1-ene] | no effect on the pharmacokinetics of clopidogrel | 0 | −19 | −7 | comparable activity |  | 
2 |  | CC/C(=C(\c1ccc(I)cc1)c1ccc(OCCN2CCCC2)cc1)c1ccccc1 [Idoxifene] |  | 2 | 6 | 48 |  |  | 
3 |  | O=C(c1ccc(OCCN2CCCCC2)cc1)c1c(-c2ccc(O)cc2)sc2cc(O)ccc12 [Raloxifene] |  | −18 | 11 |  | does not have measurable activity | substantially less active; also recorded: does not stimulate the production of TGF-beta1 | 
4 |  | CC/C(=C(\c1ccccc1)c1ccc(OCCN(C)C)cc1)c1ccccc1 [Tamoxifen] |  |  |  |  |  |  | 33
5 |  | CC/C(=C(\c1ccccc1)c1ccc(OCCN(C)C)cc1)c1ccccc1 [tamoxifen citrate] |  |  |  |  | no difference |  | 
